Assay results published in ChEMBL document CHEMBL1201862, “PubChem BioAssay data set” (2004).
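Grown in 96-well plates, cells were treated for 48 hours with each compound at five concentrations. Insufficient inhibition: endpoint recorded as highest concentration tested. GI50: concentration for 50% inhibition of growth.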 Calls of active or inactive are those of the source. No stated cut-off is given here; in the data, active = GI50 up to about 1.1 µM and inactive = higher.

Columns and labels:
Assay in all cases: NCI anticancer screen, dose series, 48 h
DU-145 = system: DU-145
SNB-19 = system: SNB-19
SF-295 = system: SF-295
NCI-H226 = system: NCI-H226
MOLT-4 = system: MOLT-4
NCI-H460 = system: NCI-H460
CAKI-1 = system: CAKI-1
OVCAR-5 = system: OVCAR-5
OVCAR-8 = system: OVCAR-8
MDA-MB-231 = system: MDA-MB-231
ACHN = system: ACHN
T47D = system: T47D
Hs-578T = system: Hs-578T
UO-31 = system: UO-31
IGROV-1 = system: IGROV-1
COLO 205 = system: COLO 205
HCT-116 = system: HCT-116
OVCAR-3 = system: OVCAR-3
NCI/ADR-RES = system: NCI/ADR-RES
SF-539 = system: SF-539

Measured: GI50

O=C(CNCc1ccccc1)Oc1c(Cl)c(Cl)c(Cl)c(Cl)c1Cl
inactive: DU-145 15.9 µM | SNB-19 28.6 µM | SF-295 27.2 µM | NCI-H226 28.4 µM | MOLT-4 22.3 µM | NCI-H460 38.9 µM | CAKI-1 25.3 µM | OVCAR-5 66.5 µM | OVCAR-8 21.4 µM | MDA-MB-231 25.4 µM | ACHN 23.1 µM | T47D 25.7 µM | Hs-578T 17.3 µM | UO-31 20.6 µM | IGROV-1 33.1 µM | COLO 205 25 µM | HCT-116 > 100 µM | OVCAR-3 22.5 µM | NCI/ADR-RES 33.7 µM | SF-539 32.3 µM

COC(=O)c1cccc2c1Oc1ccccc1S2
inactive: DU-145 > 100 µM | SNB-19 41.2 µM | SF-295 60.8 µM | NCI-H226 37.4 µM | MOLT-4 24.5 µM | NCI-H460 44.3 µM | CAKI-1 14.5 µM | OVCAR-5 73.8 µM | OVCAR-8 74.3 µM | MDA-MB-231 38.7 µM | ACHN 61.2 µM | T47D 32.3 µM | Hs-578T 40.6 µM | UO-31 31.8 µM | IGROV-1 56.2 µM | COLO 205 19.6 µM | HCT-116 47.1 µM | OVCAR-3 > 100 µM | NCI/ADR-RES 34.4 µM | SF-539 55.1 µM

Cc1ccc(C(=O)OCC(C)C)cc1/N=N/N(C)C
inactive: DU-145 > 100 µM | SNB-19 > 76.7 µM | SF-295 27 µM | NCI-H226 > 100 µM | MOLT-4 59.7 µM | NCI-H460 > 100 µM | CAKI-1 43.8 µM | OVCAR-5 > 100 µM | OVCAR-8 > 100 µM | MDA-MB-231 > 100 µM | ACHN 54.8 µM | T47D 35.3 µM | Hs-578T > 100 µM | UO-31 41.3 µM | IGROV-1 > 100 µM | COLO 205 > 100 µM | HCT-116 > 61.9 µM | OVCAR-3 28.6 µM | NCI/ADR-RES 97.1 µM | SF-539 > 86.7 µM

COC(=O)c1ccc(NCc2cc(O)ccc2O)cc1O
inactive: DU-145 12.3 µM | SNB-19 13.2 µM | SF-295 12.9 µM | NCI-H226 14 µM | MOLT-4 2.09 µM | NCI-H460 14.4 µM | CAKI-1 6.78 µM | OVCAR-5 16.7 µM | OVCAR-8 3.29 µM | MDA-MB-231 11 µM | ACHN 9.68 µM | T47D 3.4 µM | Hs-578T 15.7 µM | UO-31 1.82 µM | IGROV-1 8.97 µM | COLO 205 16.7 µM | HCT-116 17.5 µM | OVCAR-3 3.6 µM | NCI/ADR-RES 1.85 µM | SF-539 1.91 µM

O=C(NN=C(c1ccccc1)c1ccccc1)/C(O)=C/C(=O)c1ccc(Cl)cc1
inactive: DU-145 73.1 µM | SNB-19 38.3 µM | SF-295 34.7 µM | NCI-H226 41.2 µM | MOLT-4 35 µM | NCI-H460 5.5 µM | CAKI-1 > 100 µM | OVCAR-5 > 100 µM | OVCAR-8 30.1 µM | MDA-MB-231 11.9 µM | ACHN 37.4 µM | T47D 30.2 µM | Hs-578T 27.2 µM | UO-31 29.8 µM | IGROV-1 27.7 µM | COLO 205 19.9 µM | HCT-116 31.5 µM | OVCAR-3 30.8 µM | NCI/ADR-RES 20.7 µM | SF-539 26.4 µM

Cc1ccc(/C(Cl)=C/C=C(C#N)C#N)cc1
inactive: DU-145 11.3 µM | SNB-19 7.62 µM | SF-295 13.3 µM | NCI-H226 4.39 µM | NCI-H460 3.8 µM | CAKI-1 3.64 µM | OVCAR-5 2.6 µM | OVCAR-8 3.16 µM | MDA-MB-231 2.64 µM | ACHN 2.45 µM | T47D 4.23 µM | Hs-578T 2.16 µM | UO-31 4.58 µM | IGROV-1 3.59 µM | COLO 205 3.31 µM | HCT-116 1.83 µM | OVCAR-3 1.93 µM | NCI/ADR-RES 2.18 µM | SF-539 2.64 µM
active: MOLT-4 0.65 µM

Cc1ccc(Nc2ncnc3sc(SCc4ccccc4)nc23)cc1
inactive: DU-145 27.3 µM | SNB-19 > 100 µM | SF-295 74.8 µM | NCI-H226 > 100 µM | MOLT-4 > 100 µM | NCI-H460 > 100 µM | CAKI-1 26 µM | OVCAR-5 43.7 µM | OVCAR-8 > 100 µM | MDA-MB-231 > 100 µM | ACHN 32 µM | T47D 84.7 µM | Hs-578T > 100 µM | UO-31 56 µM | IGROV-1 > 100 µM | COLO 205 > 100 µM | HCT-116 > 100 µM | OVCAR-3 > 100 µM | NCI/ADR-RES > 100 µM | SF-539 > 100 µM
